US11884675B2, “Heterocyclic compounds as triggering receptor expressed on myeloid cells 2 agonists and methods of use” (AMGEN INC., priority 2020, dated 2024)
pEC50: −log10 of the molar value.

Target: hTREM2 (Homo sapiens, UniProt Q9NZC2)
Test: TREM2 activity by cellular Syk phosphorylation (AlphaScreen/AlphaLISA) in TREM2/DAP12-HEK cells, used for Examples 1-305
Type: cell-based
Parameters: expressed in transfected cells
Conditions: HEK293 Cells
Outline: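 Single-cell-cloned HEK293 cells overexpressing TREM2 and DAP12, seeded 20 h, exposed to test articles (1% final DMSO) for 45 min at room temperature. Lysates read for phospho-Syk (Tyr525/526) vs total Syk by AlphaScreen. Signal normalised as percent of control between isotype IgG and 100 nM anti-TREM2 antibody; 4-parameter logistic fit.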

Chain of hTREM2 (Q9NZC2 19-230): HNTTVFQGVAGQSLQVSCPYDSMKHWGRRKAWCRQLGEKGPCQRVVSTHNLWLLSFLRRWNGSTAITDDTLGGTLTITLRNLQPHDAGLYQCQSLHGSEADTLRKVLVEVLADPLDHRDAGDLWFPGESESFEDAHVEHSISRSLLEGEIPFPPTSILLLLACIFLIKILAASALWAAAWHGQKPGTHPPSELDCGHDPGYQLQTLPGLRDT
Chain of hTREM2 (O43914 22-113 partner): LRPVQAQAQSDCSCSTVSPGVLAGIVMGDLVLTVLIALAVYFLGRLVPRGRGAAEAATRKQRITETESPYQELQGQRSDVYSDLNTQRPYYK

Row | pEC50 | hTREM2 Emax | Structure (SMILES)
1 | ≥ 7.30 | +++ (Emax>150 and ≤250) | Cc1nc2nc(N3CCO[C@@H](c4cnn(C5CC5)c4)C3)nc(-c3ccc(F)cc3F)c2nc1C [Example 32, 2-((2S)-2-(1-cyclopropyl-1H-pyrazol-4-yl)-4-morpholinyl)-4-(2,4-difluorophenyl)-6,7-dimethylpteridine]
2 | ≥ 7.30 | ++++ (Emax>250) | Cc1cc([C@H]2CN(c3nc(-c4ccc(F)cc4F)c4nc(C)c(C)nc4n3)CCO2)ccn1 [Example 33, 4-(2,4-difluorophenyl)-6,7-dimethyl-2-((2S)-2-(2-methyl-4-pyridinyl)-4-morpholinyl)pteridine]
3 | ≥ 7.30 | +++ (Emax>150 and ≤250) | Cc1ccc(-c2nc(N3CCO[C@@H](c4cnn(C)c4)C3)nc3nc(C)c(C)nc23)c(F)c1 [Example 37, 4-(2-fluoro-4-methylphenyl)-6,7-dimethyl-2-((2S)-2-(1-methyl-1H-pyrazol-4-yl)-4-morpholinyl)pteridine]
4 | ≥ 7.30 | +++ (Emax>150 and ≤250) | Cc1ccc(-c2nc(N3CCO[C@@H](c4cnn(C5CC5)c4)C3)nc3nc(C)c(C)nc23)c(F)c1 [Example 38, 2-((2S)-2-(1-cyclopropyl-1H-pyrazol-4-yl)-4-morpholinyl)-4-(2-fluoro-4-methylphenyl)-6,7-dimethylpteridine]
5 | ≥ 7.30 | +++ (Emax>150 and ≤250) | Cc1ccc(-c2nc(N3CCO[C@@H](c4ccnc(C)c4)C3)nc3nc(C)c(C)nc23)c(F)c1 [Example 39, 4-(2-fluoro-4-methylphenyl)-6,7-dimethyl-2-((2S)-2-(2-methyl-4-pyridinyl)-4-morpholinyl)pteridine]
6 | 6.30 to 7.30 | + (Emax>45 and ≤100) | Cc1nc2nc(N3CCO[C@@H](c4cnn(C)c4)C3)nc(CCC(F)(F)F)c2nc1C [Example 40, 6,7-dimethyl-2-((2S)-2-(1-methyl-1H-pyrazol-4-yl)-4-morpholinyl)-4-(3,3,3-trifluoropropyl)pteridine]
7 | 6.30 to 7.30 | + (Emax>45 and ≤100) | Cc1cc([C@H]2CN(c3nc(CCC(F)(F)F)c4nc(C)c(C)nc4n3)CCO2)ccn1 [Example 41, 6,7-dimethyl-2-((2S)-2-(2-methyl-4-pyridinyl)-4-morpholinyl)-4-(3,3,3-trifluoropropyl)pteridine]
8 | ≥ 7.30 | ++ (Emax>100 and ≤150) | Cc1nc2nc(N3CCO[C@@H](c4cnn(C)c4)C3)nc([C@H]3C[C@H](C(F)(F)F)C3)c2nc1C [Example 42, 6,7-dimethyl-2-((2S)-2-(1-methyl-1H-pyrazol-4-yl)-4-morpholinyl)-4-(trans-3-(trifluoromethyl)cyclobutyl)pteridine]
9 | 6.30 to 7.30 | +++ (Emax>150 and ≤250) | Cc1nc2nc(N3CCO[C@@H](c4cnn(C)c4)C3)nc([C@H]3C[C@@H](C(F)(F)F)C3)c2nc1C [Example 43, 6,7-dimethyl-2-((2S)-2-(1-methyl-1H-pyrazol-4-yl)-4-morpholinyl)-4-(cis-3-(trifluoromethyl)cyclobutyl)pteridine]
10 | 6.30 to 7.30 | +++ (Emax>150 and ≤250) | Cc1nc2nc(N3CCO[C@@H](c4cnn(C)c4)C3)nc([C@H]3C[C@@H](C(F)F)C3)c2nc1C [Example 44, 4-(cis-3-(difluoromethyl)cyclobutyl)-6,7-dimethyl-2-((2S)-2-(1-methyl-1H-pyrazol-4-yl)-4-morpholinyl)pteridine]
11 | 6.30 to 7.30 | ++ (Emax>100 and ≤150) | Cc1nc2nc(N3CCO[C@@H](c4cnn(C)c4)C3)nc([C@H]3C[C@H](C(F)F)C3)c2nc1C [Example 45, 4-(trans-3-(difluoromethyl)cyclobutyl)-6,7-dimethyl-2-((2S)-2-(1-methyl-1H-pyrazol-4-yl)-4-morpholinyl)pteridine]
12 | ≥ 7.30 | +++ (Emax>150 and ≤250) | Cc1nc2nc(N3CCO[C@@H](c4cnn(C)c4)C3)nc(C3CC4(C3)CC(F)(F)C4)c2nc1C [Example 46, 4-(6,6-difluorospiro[3.3]heptan-2-yl)-6,7-dimethyl-2-((2S)-2-(1-methyl-1H-pyrazol-4-yl)-4-morpholinyl)pteridine]
13 | ≥ 7.30 | + (Emax>45 and ≤100) | Cc1nc2nc(N3CCO[C@@H](c4cnn(C5CC5)c4)C3)nc([C@H]3C[C@@H](C(F)F)C3)c2nc1C [Example 47, 2-((2S)-2-(1-cyclopropyl-1H-pyrazol-4-yl)-4-morpholinyl)-4-(cis-3-(difluoromethyl)cyclobutyl)-6,7-dimethylpteridine]
14 | ≥ 7.30 | ++ (Emax>100 and ≤150) | Cc1nc2nc(N3CCO[C@@H](c4cnn(C5CC5)c4)C3)nc([C@H]3C[C@H](C(F)F)C3)c2nc1C [Example 48, 2-((2S)-2-(1-cyclopropyl-1H-pyrazol-4-yl)-4-morpholinyl)-4-(trans-3-(difluoromethyl)cyclobutyl)-6,7-dimethylpteridine]
15 | ≥ 7.30 | ++ (Emax>100 and ≤150) | Cc1nc2nc(N3CCO[C@@H](c4cnn(C5CC5)c4)C3)nc(C3CC4(C3)CC(F)(F)C4)c2nc1C [Example 49, 2-((2S)-2-(1-cyclopropyl-1H-pyrazol-4-yl)-4-morpholinyl)-4-(6,6-difluorospiro[3.3]heptan-2-yl)-6,7-dimethylpteridine]
16 | ≥ 7.30 | +++ (Emax>150 and ≤250) | Cc1nc2nc(N3CCO[C@@H](c4cnn(C5CC5)c4)C3)nc([C@H]3C[C@H](C(F)(F)F)C3)c2nc1C [Example 50, 2-((2S)-2-(1-cyclopropyl-1H-pyrazol-4-yl)-4-morpholinyl)-6,7-dimethyl-4-(trans-3-(trifluoromethyl)cyclobutyl)pteridine]
17 | ≥ 7.30 | +++ (Emax>150 and ≤250) | Cc1cc([C@H]2CN(c3nc4nc(C)c(C)nc4c([C@H]4C[C@H](C(F)(F)F)C4)n3)CCO2)cnn1 [Example 51, 6,7-dimethyl-2-((2S)-2-(6-methyl-4-pyridazinyl)-4-morpholinyl)-4-(trans-3-(trifluoromethyl)cyclobutyl)pteridine]
18 | 6.30 to 7.30 | +++ (Emax>150 and ≤250) | Cc1cc([C@@H]2CN(c3nc4nc(C)c(C)nc4c([C@H]4C[C@H](C(F)(F)F)C4)n3)CCO2)cnn1 [Example 52, 6,7-dimethyl-2-((2R)-2-(6-methyl-4-pyridazinyl)-4-morpholinyl)-4-(trans-3-(trifluoromethyl)cyclobutyl)pteridine]
19 | ≥ 7.30 | ++ (Emax>100 and ≤150) | Cc1cc([C@H]2CN(c3nc4nc(C)c(C)nc4c([C@H]4C[C@@H](C(F)F)C4)n3)CCO2)ccn1 [Example 53, 4-(cis-3-(difluoromethyl)cyclobutyl)-6,7-dimethyl-2-((2S)-2-(2-methyl-4-pyridinyl)-4-morpholinyl)pteridine]
20 | ≥ 7.30 | ++ (Emax>100 and ≤150) | Cc1cc([C@H]2CN(c3nc4nc(C)c(C)nc4c([C@H]4C[C@H](C(F)F)C4)n3)CCO2)ccn1 [Example 54, 4-(trans-3-(difluoromethyl)cyclobutyl)-6,7-dimethyl-2-((2S)-2-(2-methyl-4-pyridinyl)-4-morpholinyl)pteridine]
21 | ≥ 7.30 | +++ (Emax>150 and ≤250) | Cc1cc([C@H]2CN(c3nc4nc(C)c(C)nc4c([C@H]4C[C@H](C(F)(F)F)C4)n3)CCO2)ccn1 [Example 55]
22 | ≥ 7.30 | ++ (Emax>100 and ≤150) | Cc1cc([C@H]2CN(c3nc(C4CC5(C4)CC(F)(F)C5)c4nc(C)c(C)nc4n3)CCO2)ccn1 [Example 56, 4-(6,6-difluorospiro[3.3]heptan-2-yl)-6,7-dimethyl-2-((2S)-2-(2-methyl-4-pyridinyl)-4-morpholinyl)pteridine]
23 | 5.52 to 6.30 | ++ (Emax>100 and ≤150) | Cc1nc2nc(N3CCO[C@@H](c4cnn(C)c4)C3)nc([C@@H]3C[C@H]3C(F)(F)F)c2nc1C [Example 57, 6,7-dimethyl-2-((2S)-2-(1-methyl-1H-pyrazol-4-yl)-4-morpholinyl)-4-((1R,2R)-2-(trifluoromethyl)cyclopropyl)pteridine]
24 | 6.30 to 7.30 | +++ (Emax>150 and ≤250) | Cc1cc(Cl)ccc1-c1nc(N2CCO[C@@H](c3cnn(C)c3)C2)nc2nc(C)c(C)nc12 [Example 58, 4-(4-chloro-2-methylphenyl)-6,7-dimethyl-2-((2S)-2-(1-methyl-1H-pyrazol-4-yl)-4-morpholinyl)pteridine]
25 | 6.30 to 7.30 | +++ (Emax>150 and ≤250) | Cc1cc(F)ccc1-c1nc(N2CCO[C@@H](c3cnn(C)c3)C2)nc2nc(C)c(C)nc12 [Example 59, 4-(4-fluoro-2-methylphenyl)-6,7-dimethyl-2-((2S)-2-(1-methyl-1H-pyrazol-4-yl)-4-morpholinyl)pteridine]
26 | ≥ 7.30 | +++ (Emax>150 and ≤250) | Cc1nc2nc(N3CCO[C@@H](c4cnn(C)c4)C3)nc(-c3ccc(F)c(F)c3)c2nc1C [Example 60, 4-(3,4-difluorophenyl)-6,7-dimethyl-2-((2S)-2-(1-methyl-1H-pyrazol-4-yl)-4-morpholinyl)pteridine]
27 | ≥ 7.30 | +++ (Emax>150 and ≤250) | Cc1nc2nc(N3CCO[C@@H](c4cnn(C)c4)C3)nc(-c3ccc(F)c(F)c3F)c2nc1C [Example 61, 6,7-dimethyl-2-((2S)-2-(1-methyl-1H-pyrazol-4-yl)-4-morpholinyl)-4-(2,3,4-trifluorophenyl)pteridine]
28 | ≥ 7.30 | ++++ (Emax>250) | Cc1nc2nc(N3CCO[C@@H](c4cnn(C)c4)C3)nc(-c3cc(F)c(F)cc3F)c2nc1C [Example 62, 6,7-dimethyl-2-((2S)-2-(1-methyl-1H-pyrazol-4-yl)-4-morpholinyl)-4-(2,4,5-trifluorophenyl)pteridine]
